ChEMBL document CHEMBL5365543, “Benzamidine Conjugation Converts Expelled Potential Active Agents into Antifungals against Drug-Resistant Fungi” (J Med Chem, 2023)
In brackets after ≈: the same amount, converted by molar mass. Activity calls are given as the source filed them. The calls are words filed in the database; no cut-off is given here.

Assays:
Candida albicans [1] = experiment: Antifungal activity against clinical isolate Candida albicans SCUPC2R14MPG2A harbouring UPC2 mutation overexpressing […] Erg11 assessed as inhibition of fungal growth measured after 24 hrs by CLSI based microtiter plate analysis; type: functional
Candida albicans [2] = experiment: Inhibition of biofilm formation in fluconazole-resistant clinical isolate Candida albicans Gu5 at 8 microg/ml measured after 24 hrs by alamar blue staining based colorimetric analysis; type: functional
Candida albicans [3] = experiment: (§1) Antifungal activity against clinical isolate fluconazole-resistant Candida albicans Gu5 infected in BALB/c mouse assessed as reduction in renal neutrophil infiltration at 6 mg/kg, ip administered on day 1 and day 3 post fungal infection measured after 7 days by periodic acid-schiff/hematoxylin and eosin staining based microscopic analysis; type: functional, organism-based; conditions: time 7.0 day
Candida albicans [4] = experiment: Antifungal activity against clinical isolate fluconazole-resistant Candida albicans DSY296 harbouring TAC1 mutation overexpressing efflux pump CdrL and Cdr2 assessed as inhibition of fungal growth measured after 24 hrs by CLSI based microtiter plate analysis; type: functional
Nakaseomyces glabratus = experiment: Antifungal activity against clinical isolate fluconazole-resistant Candida glabrata CG2 assessed as inhibition of fungal growth measured after 24 hrs by CLSI based microtiter plate analysis; type: functional
Candida albicans [5] = experiment: Antifungal activity against wild-type Candida albicans SC5314 assessed as decrease in viable count at 2 to 4 microg/ml by colony-counting based time-killing kinetics assay; type: functional, organism-based; conditions: dose 2-4 µg/ml, time 24.0 hrs, TDE = time-dependent effect
[6] = Selectivity ratio of IC50 for cytotoxicity against human HBE cells to MIC80 for antifungal activity against clinical isolate Candida albicans SCMRRIR34MPG2A harbouring MRR1 mutation overexpressing efflux pump MdrL; type: toxicity, cell-based
Candida tropicalis = experiment: Antifungal activity against clinical isolate fluconazole-resistant Candida tropicalis CT10 assessed as inhibition of fungal growth measured after 24 hrs by CLSI based microtiter plate analysis; type: functional
[Candida] auris [7] = Antifungal activity against clinical isolate fluconazole-resistant Candida auris CBS12776 assessed as inhibition of fungal growth measured after 24 hrs by CLSI based microtiter plate analysis; type: functional; conditions: Candidozyma auris
Cryptococcus neoformans = experiment: Antifungal activity against clinical isolate fluconazole-resistant Cryptococcus neoformans H99 assessed as inhibition of fungal growth measured after 24 hrs by CLSI based microtiter plate analysis; type: functional
[8] = Selectivity ratio of IC50 for cytotoxicity against human HBE cells to MIC80 for antifungal activity against clinical isolate Candida albicans YEM13 overexpressing efflux pump MdrL; type: toxicity, cell-based
[9] = Drug accumulation in wild-type Candida albicans SC5314 at 50 microg/ml incubated for 3 hrs by HPLC analysis; type: ADME; conditions: dose 50 µg/ml
Candida albicans [10] = experiment: Antifungal activity against wild-type Candida albicans SC5314 assessed as inhibition of fungal growth measured after 24 hrs by CLSI based microtiter plate analysis; type: functional
[11] = Selectivity ratio of IC50 for cytotoxicity against human HBE cells to MIC80 for antifungal activity against wild-type Candida albicans SC5314; type: toxicity, cell-based
[Candida] auris [12] = Antifungal activity against clinical isolate fluconazole-resistant Candida auris CBS12774 assessed as inhibition of fungal growth measured after 24 hrs by CLSI based microtiter plate analysis; type: functional; conditions: Candidozyma auris
Candida albicans [13] = experiment: Antifungal activity against clinical isolate Candida albicans SCMRRIR34MPG2A harbouring MRR1 mutation overexpressing efflux pump MdrL assessed as inhibition of fungal growth measured after 24 hrs by CLSI based microtiter plate analysis; type: functional
[Candida] auris [14] = Inhibition of biofilm formation in clinical isolate fluconazole-resistant Candida auris CBS12774 at 2 microg/ml measured after 24 hrs by alamar blue staining based colorimetric analysis; type: functional, organism-based; conditions: Candidozyma auris, dose 2.0 µg/ml
[15] = Selectivity ratio of IC50 for cytotoxicity against human HBE cells to MIC80 for antifungal activity against clinical isolate fluconazole-resistant Candida albicans DSY296 harbouring TAC1 mutation overexpressing efflux pump CdrL and Cdr2; type: toxicity, cell-based
Candida albicans [16] = experiment: Antifungal activity against wild-type Candida albicans SC5314 assessed as decrease in viable count measured after 24 hrs by colony-counting based time-killing kinetics assay; type: functional, organism-based; conditions: dose 2-4 µg/ml
Candida albicans [17] = experiment: Inhibition of biofilm formation in fluconazole-resistant clinical isolate Candida albicans Gu5 at 2 microg/ml measured after 24 hrs by alamar blue staining based colorimetric analysis; type: functional, organism-based; conditions: dose 2.0 µg/ml
[18] = Selectivity ratio of IC50 for cytotoxicity against human HBE cells to MIC80 for antifungal activity against clinical isolate Candida albicans SCUPC2R14MPG2A harbouring UPC2 mutation overexpressing […]; type: toxicity, cell-based
[19] = Selectivity ratio of IC50 for cytotoxicity against human HBE cells to MIC80 for antifungal activity against clinical isolate fluconazole-resistant Candida albicans Gu5 harbouring TAC1 mutation overexpressing efflux pump CdrL and Cdr2; type: toxicity, cell-based
Candida albicans [20] = experiment: Antifungal activity against clinical isolate Candida albicans YEM13 overexpressing efflux pump MdrL assessed as inhibition of fungal growth measured after 24 hrs by CLSI based microtiter plate analysis; type: functional
Candida albicans [21] = experiment: Inhibition of biofilm formation in wild-type Candida albicans SC5314 at 8 microg/ml measured after 24 hrs by alamar blue staining based colorimetric analysis; type: functional
[22] = Selectivity ratio of IC50 for cytotoxicity against human HBE cells to MIC80 for antifungal activity against clinical isolate fluconazole-resistant Candida tropicalis CT10; type: toxicity, cell-based
Candida albicans [23] = experiment: Antifungal activity against clinical isolate fluconazole-resistant Candida albicans Gu5 infected in BALB/c mouse assessed as fold reduction in kidney fungal burden at 6 mg/kg, ip administered on day 1 and day 3 post fungal infection measured after 7 days; type: functional; conditions: time 7 day
Candida albicans [24] = experiment: Antifungal activity against fluconazole-resistant clinical isolate Candida albicans Gu5 assessed as decrease in viable count measured after 24 hrs by colony-counting based time-killing kinetics assay; type: functional, organism-based; conditions: dose 2-4 µg/ml
Candida albicans [25] = experiment: Antifungal activity against clinical isolate fluconazole-resistant Candida albicans G5 harbouring MRR1 mutation overexpressing MdrL assessed as inhibition of fungal growth measured after 24 hrs by CLSI based microtiter plate analysis; type: functional
[26] = Selectivity ratio of IC50 for cytotoxicity against human HBE cells to MIC80 for antifungal activity against clinical isolate fluconazole-resistant Candida albicans G5 harbouring MRR1 mutation overexpressing MdrL; type: toxicity, cell-based
Candida albicans [27] = experiment: Antifungal activity against clinical isolate Candida albicans YEM15 overexpressing efflux pump CdrL and Cdr2 assessed as inhibition of fungal growth measured after 24 hrs by CLSI based microtiter plate analysis; type: functional
[28] = Selectivity ratio of IC50 for cytotoxicity against human HBE cells to MIC80 for antifungal activity against clinical isolate fluconazole-resistant Cryptococcus neoformans H99; type: toxicity, cell-based
Candida albicans [29] = experiment: Induction of drug resistance in wild-type Candida albicans SC5314 assessed as change in MIC at 0.5 times of MIC measured after 30 passages by broth microdilution method; type: functional
[Candida] auris [30] = Inhibition of biofilm formation in clinical isolate fluconazole-resistant Candida auris CBS12774 measured after 24 hrs by alamar blue staining based colorimetric analysis; type: functional, organism-based; conditions: Candidozyma auris, dose 4-32 µg/ml
Candida albicans [31] = experiment: Inhibition of biofilm formation in wild-type Candida albicans SC5314 at 2 microg/ml measured after 24 hrs by alamar blue staining based colorimetric analysis; type: functional, organism-based; conditions: dose 2.0 µg/ml
Candida albicans [32] = experiment: as §1, with “kidney fungal infection” for “renal neutrophil infiltration”; type: functional, organism-based; conditions: time 7.0 day

For `C=C1C(=O)[C@@]2(C)CC[C@@H]3[C@@]1(CC[C@H]1[C@@]3(C)CCC[C@@]1(C)C(=O)OCCCOc1ccc(C(=N)N)cc1)C2`, the MIC80 (Candida albicans [1]) was 1 µg/mL (≈ 1.97 µM), the inhibition at 8 µg/mL (Candida albicans [2]) was 81.5% and the Activity (Candida albicans [3]) was “Active”. The MIC80 (Candida albicans [4]) was 2 µg/mL (≈ 3.95 µM), the MIC80 (Nakaseomyces glabratus) was 2 µg/mL (≈ 3.95 µM) and the Activity (Candida albicans [5]) was “Tde”. The selectivity ratio [6] was 8, the MIC80 (Candida tropicalis) was 2 µg/mL (≈ 3.95 µM) and the MIC80 ([Candida] auris [7]) was 2 µg/mL (≈ 3.95 µM). The MIC80 (Cryptococcus neoformans) was 2 µg/mL (≈ 3.95 µM), the selectivity ratio [8] was 8 and the Drug uptake [9] was “Active”. For the same compound, the MIC (Candida albicans [10]) was “inactive”, the MIC80 (Candida albicans [10]; Candida albicans, SC5314, 24 h, read-out: MIC80) was 1 µg/mL (≈ 1.97 µM) and the selectivity ratio [11] was 8. The MIC80 ([Candida] auris [12]) was 2 µg/mL (≈ 3.95 µM), the MIC80 (Candida albicans [13]) was 2 µg/mL (≈ 3.95 µM) and the inhibition ([Candida] auris [14]) was “Active”. For the same compound, the selectivity ratio [15] was 8, the Activity (Candida albicans [16]) was “Dose-Dependent Effect” and the inhibition (Candida albicans [17]) was “Active”. The selectivity ratio [18] was 8, the selectivity ratio [19] was 8 and the MIC80 (Candida albicans [20]) was 1 µg/mL (≈ 1.97 µM). For the same compound, the inhibition at 8 µg/mL (Candida albicans [21]) was roughly 80.2%, the selectivity ratio [22] was 8 and the “fold change (FC)” value (Candida albicans [23]) was roughly 50. For the same compound, the Activity (Candida albicans [24]) was “Dose-Dependent Effect”, the MIC80 (Candida albicans [25]) was 1 µg/mL (≈ 1.97 µM) and the selectivity ratio [26] was 8. The MIC80 (Candida albicans [27]) was 1 µg/mL (≈ 1.97 µM), the selectivity ratio [28] was 8 and the Activity (Candida albicans [29]) was “Active”. For the same compound, the inhibition ([Candida] auris [30]) was “Dose-Dependent Effect”, the inhibition (Candida albicans [31]) was “Active” and the Activity (Candida albicans [32]) was “Active”.
